Data taken from patent US9018383B2, “Acylamino-substituted cyclic carboxylic acid derivatives and their use as pharmaceuticals” (Sanofi, priority 2009, dated 2015).
pIC50: −log10 of the molar value.

These compounds were tested against human Edg-2 receptor (Homo sapiens, UniProt Q92633) (assay: Determination of Edg-2 receptor inhibition by FLIPR measurements (LPA-mediated calcium liberation)). Settings: CHO cells overexpressing human Edg-2 receptor, LPA 100 nM, fluo-4 calcium fluorescence; read-out: Inhibitory concentrations IC50 for inhibition of the Edg-2 receptor.
Type: cell-based
Experimental: A) Determination of Edg-2 Receptor Inhibition by Fluorescence Imaging Plate Reader (FLIPR) Measurements
The inhibition of the Edg-2 receptor (LPA1 receptor) by the compounds of the invention was quantified by the inhibitory effect on the LPA-mediated calcium liberation in a cell-based calcium fluorescence assay by use of Chinese hamster ovarian (CHO) cells in which the human Edg-2 receptor was stably overexpressed (Flp-In system, Invitrogen). […] Changes in intracellular calcium were determined by fluorescence measurement with the calcium-sensitive dye fluo-4 (Invitrogen) in a fluorescence imaging plate reader (FLIPR, […]).
CHO cells stably overexpressing the human Edg-2 receptor were seeded (40.000 per well) in black clear-bottomed poly-D-lysine-coated 96 well plates (Becton Dickinson, Biocoat cellware) approximately 18-24 h prior to the experiments. Cells were grown in an incubator at 37° C., 5% carbon dioxide and 95% humidity in cell culture media based on F-12 glutamax media (Gibco, #31765) supplemented with 1% (vol/vol) penicilline/streptomycine (PAN, #P06-07100), 10% (vol/vol) fetal calf serum (FCS, PAA, #A15-151) and hygromycin B (Invitrogen, #10687-010) 300 mg/l (final concentrations).
Prior to the FLIPR experiment, cells were loaded with fluo-4 acetoxymethyl ester (fluo-4 AM, Invitrogen, #F14202) for 60 min in an incubator at 37° C., 5% carbon dioxide and 95% humidity in dye-loading buffer consisting of Hanks' Balanced Salt Solution (HBSS, Invitrogen, #14065049) supplemented with fluo-4 AM at 2 μM (all data given for final concentration), Pluronic® F-127 0.05% (vol/vol) (Invitrogen, #P-3000 MP), HEPES 20 mM (Gibco, #15630), probenecid 2.5 mM (Sigma, #P-8761) and bovine serum albumin 0.05% (BSA, Sigma, #A-6003), adjusted to pH 7.5 with sodium hydroxide. During cell loading, fluo-4 AM is cleaved by intracellular esterase resulting in trapping of the dye fluo-4 within the cells. Loading was terminated by washing of the cells in a cell washer (Tecan Power washer) three times with the buffer specified afore but without fluo-4 AM and BSA. This latter buffer was also used as the buffer in the subsequent cell fluorescence measurements.
The dye-loaded and washed cells were pre-incubated for approximately 5 min with various concentrations of the test compound added as a solution in DMSO (0.3% vol/vol maximum final concentration of DMSO), or with DMSO in the respective concentration only (positive control). Subsequent addition of LPA (18:1, 1-oleoyl-sn-glycerol 3-phosphate; 100 nM final concentration) leads to liberation of intracellular calcium from internal stores resulting in a large transient increase of the fluo-4 fluorescence signal which was monitored over approximately 3 min. The percent inhibition caused by the test compound was determined from the maximum fluorescence response after LPA addition to cells pre-incubated with the compound as compared to the maximum fluorescence response after LPA addition to cells pre-incubated with DMSO only. All fluorescence values were corrected for the baseline fluorescence values obtained with cells which were pre-incubated with DMSO only and were not treated with LPA (baseline control). All measurements were performed in triplicate. From the percent inhibitions the inhibitory concentration IC50 was determined.

human Edg-2 receptor, sequence (Q92633 whole entry): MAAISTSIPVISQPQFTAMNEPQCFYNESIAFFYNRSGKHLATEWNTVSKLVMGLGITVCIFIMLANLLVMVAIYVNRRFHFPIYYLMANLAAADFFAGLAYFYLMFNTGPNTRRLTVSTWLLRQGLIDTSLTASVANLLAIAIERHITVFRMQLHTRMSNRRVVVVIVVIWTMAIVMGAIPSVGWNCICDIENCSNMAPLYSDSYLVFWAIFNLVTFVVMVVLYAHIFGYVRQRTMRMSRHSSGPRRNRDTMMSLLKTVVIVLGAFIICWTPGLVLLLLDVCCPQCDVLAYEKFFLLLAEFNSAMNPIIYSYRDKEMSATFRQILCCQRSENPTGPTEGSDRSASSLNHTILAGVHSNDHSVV

| Structure (SMILES) | pIC50 |
| --- | --- |
| CC[C@H]1CC[C@](NC(=O)c2ccc(OC)c(OCCc3cccc(C4COC4)c3)c2)(C(=O)O)CC1 [Example 127, cis-4-Ethyl-1-{4-methoxy-3-[2-(3-oxetan-3-yl-phenyl)-ethoxy]-benzoylamino}-cyclohexanecarboxylic acid] | > 7.00 |
| CC[C@H]1CC[C@](NC(=O)c2cncc(-c3ccc(OC)c(Cl)c3)c2)(C(=O)O)CC1 [Example 453, 1-{[5-(3-Chloro-4-methoxy-phenyl)-pyridine-3-carbonyl]-amino}-4-ethyl-cyclohexanecarboxylic acid] | > 7.00 |
| COc1ncc(C(=O)NC2(C(=O)O)CCCCCCC2)cc1OCCc1cccc(C)c1 [Example 78, 1-{[6-Methoxy-5-(2-m-tolyl-ethoxy)-pyridine-3-carbonyl]-amino}-cyclooctanecarboxylic acid] | 6.00 to 7.00 |
| COc1ncc(C(=O)N[C@]2(C(=O)O)CC[C@@H](C)CC2)cc1-c1cccc(OC(F)(F)F)c1 [Example 308] | > 7.00 |
| COc1ncc(-c2cc(C(=O)N[C@]3(C(=O)O)CC[C@@H](C)CC3)cc(F)c2OC)cc1Cl [Example 449, 1-[3-(5-Chloro-6-methoxy-pyridin-3-yl)-5-fluoro-4-methoxy-benzoylamino]-4-methyl-cyclohexanecarboxylic acid] | 6.00 to 7.00 |
| Cc1cccc(CCOc2cc(C(=O)NC3(C(=O)O)CCCCCC3)ccc2C(C)F)c1 (stereo not shown) [Example 63, 1-[4-(1-Fluoro-ethyl)-3-(2-m-tolyl-ethoxy)-benzoylamino]-cycloheptanecarboxylic acid] | > 7.00 |
| CC[C@H]1CC[C@@](NC(=O)c2cc(F)c(OCCO)c(-c3cccc(C(F)(F)F)c3)c2)(C(=O)O)CC1 [Example 362, trans-4-Ethyl-1-{[5-fluoro-6-(2-hydroxy-ethoxy)-3′-trifluoromethyl-biphenyl-3-carbonyl]-amino}-cyclohexanecarboxylic acid] | > 7.00 |
| CC[C@H]1CC[C@@](NC(=O)c2ccc(OC)c(OCCc3cccc(Cl)c3)c2)(C(=O)O)CC1 [Example 207] | > 7.00 |
| C[C@H]1CC[C@](NC(=O)c2ccc(OCCO)c(OCCc3ccccc3)c2)(C(=O)O)CC1 [Example 421, cis-1-[4-(2-Hydroxy-ethoxy)-3-phenethyloxy-benzoylamino]-4-methyl-cyclohexanecarboxylic acid] | 6.00 to 7.00 |
| COc1ncc(C(=O)N[C@]2(C(=O)O)CC[C@@H](C)CC2)cc1-c1cccc(Cl)c1Cl [Example 311] | > 7.00 |
| CC[C@H]1CC[C@@](NC(=O)c2cnc(OC)c(-c3cccc(C(F)(F)F)c3)c2)(C(=O)O)CC1 [Example 316] | > 7.00 |
| COCCOc1ccc(C(=O)N[C@]2(C(=O)O)CC[C@H](C)CC2)cc1OCCc1cccc(Cl)c1 [Example 113, cis-1-[3-[2-(3-Chloro-phenyl)-ethoxy]-4-(2-methoxy-ethoxy)-benzoylamio]-4-methyl-cyclohexanecarboxylic acid] | 6.00 to 7.00 |
| CC[C@H]1CC[C@](NC(=O)c2cc(F)c(OCCO)c(-c3cccc(OC(F)(F)F)c3)c2)(C(=O)O)CC1 [Example 382] | > 7.00 |
| CC[C@H]1CC[C@@](NC(=O)c2cnc(OC)c(-c3ccc(Cl)c(C(F)(F)F)c3)c2)(C(=O)O)CC1 [Example 408] | 6.00 to 7.00 |
| COc1ncc(C(=O)NC2(C(=O)O)CCCCCC2)cc1-c1cccc(NS(=O)(=O)N(C)C)c1 [Example 93] | 4.52 to 6.00 |
| COc1ncc(C(=O)N[C@]2(C(=O)O)CC[C@H](C)CC2)cc1-c1cc(F)c(F)c(F)c1 [Example 313] | > 7.00 |
| COc1ncc(C(=O)N[C@]2(C(=O)O)CC[C@H](C(F)(F)F)CC2)cc1-c1cccc(OC(F)(F)F)c1 [Example 379] | > 7.00 |
| COc1ncc(C(=O)N[C@]2(C(=O)O)CC[C@H](C(F)(F)F)CC2)cc1-c1cc(Cl)cc(C(F)(F)F)c1 [Example 380] | > 7.00 |
| CC[C@H]1CC[C@](NC(=O)c2ccc(C=O)c(-c3cccc(C(F)(F)F)c3)c2)(C(=O)O)CC1 [Example 428, cis-4-Ethyl-1-[(6-formyl-3′-trifluoromethyl-biphenyl-3-carbonyl)-amino]-cyclohexanecarboxylic acid] | > 7.00 |
